Reference: patent US20150132764A1, “BAG3 AS BIOCHEMICAL SERUM AND TISSUE MARKER” (BIOUNIVERSA S.R.L., priority 2012, published 2015)

Assays:
J774 A.1 cells [1] = experiment: FACS competition assay of FITC-rBAG3 binding to J774 macrophages; set-up: species or system murine; settings: 625 nM peptide, then 14 nM FITC-rBAG3, J774 cells
Experimental: In particular J774 cells were incubated with 14 nM FITC-BAG3 protein and with 625 nM of BAG3 peptides (peptide 1, peptide 2, peptide 3, peptide 4 or scrambled peptide) or with 420 nM of F(ab′)2 fragments from anti-BAG3 monoclonal and polyclonal antibodies (mouse monoclonal AC1, AC2 and rabbit polyclonal TOS2). F(ab′)2 fragments from mouse IgG or F(ab′)2 fragments from rabbit IgG were used as a negative control.
Competition—J774 A.1 cells (2.5×105/100 μl) were incubated with 625 nM of BAG3 peptides (peptide 1, peptide 2, peptide 3, peptide 4 or scrambled peptide) or with 420 nM of F(ab′)2 fragments from anti-BAG3 monoclonal and polyclonal antibodies (mouse monoclonal AC1, AC2 and rabbit polyclonal TOS2) or F(ab′)2 fragments from mouse IgG or F(ab′)2 fragments from rabbit IgG in PBS containing 2% FBS+0.1% NaN3 for 30 min on ice. After incubation the cells were washing with PBS and then were incubated with of FITC-rBAG3 protein (14 nM), in PBS containing 2% FBS+0.1% NaN3 for 30 min at 4° C. in the dark. After washing with PBS, the cells were resuspended in PBS+2% FBS+0.1% NaN3 and analyzed by flow cytometer (BD Biosciences).

[2] = target: FITC-conjugated recombinant BAG3 protein (human) (UniProt O95817); experiment: flow cytometry competition; 14 nM FITC-rBAG3 on J774 A.1 cells with 420 nM control F(ab')2
Chain of UniProt O95817 (O95817 whole entry): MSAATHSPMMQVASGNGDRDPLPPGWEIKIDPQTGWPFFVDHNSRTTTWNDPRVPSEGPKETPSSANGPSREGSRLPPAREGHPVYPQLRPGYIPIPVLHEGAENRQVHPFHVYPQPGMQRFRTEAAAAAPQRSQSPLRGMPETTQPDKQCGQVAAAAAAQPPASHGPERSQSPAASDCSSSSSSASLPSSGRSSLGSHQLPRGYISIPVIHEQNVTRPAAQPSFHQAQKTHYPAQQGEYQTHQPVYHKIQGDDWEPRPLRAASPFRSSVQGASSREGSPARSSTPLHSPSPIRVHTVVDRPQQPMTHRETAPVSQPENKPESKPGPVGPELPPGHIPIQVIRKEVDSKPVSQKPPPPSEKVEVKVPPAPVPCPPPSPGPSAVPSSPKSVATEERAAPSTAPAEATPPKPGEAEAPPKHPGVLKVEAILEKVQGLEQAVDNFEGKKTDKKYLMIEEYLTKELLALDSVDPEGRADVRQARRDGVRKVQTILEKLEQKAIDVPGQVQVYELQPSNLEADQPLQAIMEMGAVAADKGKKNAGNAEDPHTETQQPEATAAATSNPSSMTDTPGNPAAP

J774 A.1 cells [3] = experiment: FACS analysis of FITC-rBAG3 binding to J774 macrophages; set-up: species or system murine; settings: for % of positive cells (±S.D.): flow cytometry
Experimental: FIG. 3B: BAG3 binds macrophages. J774 A1 macrophages (1×10^6 cells/ml) were incubated with different concentration of Fitc-BAG3 protein (7, 14 and 70 nm). FITC-BSA (70 nM) was used as a negative control (grey). Cells fluorescence was analyzed by flow cytometry.
rBAG3 binding—J774 A.1 cells were blocked with 2% FBS+0.1% NaN3 in PBS for 15 min on ice and incubated (2.5×105/100 μl) with different concentration of FITC-rBAG3 protein (7, 14 and 70 nm) or FITC-BSA (70 nM) in PBS containing 2% FBS+0.1% NaN3 for 30 min at 4° C. in the dark. After washing with PBS, the cells were resuspended in PBS+2% FBS+0.1% NaN3 and analyzed with a FACScan (BD Biosciences) flow cytometer.

[4] = target: surface of J774 A1 macrophages (unidentified BAG3 binding partner) (murine); experiment: flow cytometry on J774 A.1 cells, FITC-BSA negative control
[5] = target: surface of J774 A1 macrophages (unidentified BAG3 binding partner) (murine); experiment: flow cytometry on J774 A.1 cells, FITC-rBAG3 minus FITC-BSA background
[6] = target: surface of J774 A1 macrophages (unidentified BAG3 binding partner) (murine); experiment: flow cytometry on J774 A.1 cells, FITC-rBAG3
HCMa cells = experiment: Confocal direct fluorescence of rBAG3-FITC binding to cardiomyocytes; set-up: species or system Human; settings: FITC-conjugated BAG3, 1 h, FIG. 3A
Description: FIG. 3A: Confocal microscopy analysis of direct fluorescence performed for detection of rBAG3-FITC binding to HCMa cells (a, b, c) and J774 A1 cells (d, e, f, g, h, i). BAG3 recombinant protein and purified BSA (albumin from bovine serum purchased from SIGMA) were conjugated to FITC using the FluoroTag FITC Conjugation Kit purchased from SIGMA following the manufacturer instructions. Equal amount of rBAG3-FITC (b, e) and BSA-FITC (h) proteins, calculated following the manufacturer instructions, were added in HCM and J774 A1 culture media with 0.1% NaN3 for 1 h. β-integrin was analyzed as control (a, d, g). Cells were analyzed by a Zeiss LSM confocal microscope. Merged images are shown in c, f and i.
Cells were cultured on coverslips in six-well plates to 60-70% confluence and equal amount of rBAG3-FITC and BSA-FITC proteins were added in HCMa and J774 A1 culture media with 0.1% NaN3 for 1 h. […] Samples were analyzed using a confocal laser scanning microscope (Zeiss LSM confocal microscope, Germany). […] For production of figures, brightness and contrast of images were adjusted by taking care to leave a light cellular fluorescence background for visual appreciation of the lowest fluorescence intensity features and to help comparison among the different experimental groups. […]

[7] = system: inducible nitric oxide synthase (iNOS); experiment: iNOS expression in J774 A1 macrophages incubated with BAG3 (Western blotting); type: cell-based, murine; settings: J774 A1 cells, 20 hours, FIG. 3C panel a
Experimental: (§1) FIG. 3C: panel a—Analysis of Cox-2 and iNOS levels in J774 A1 macrophages incubated with BAG3. J774 A1 cells at 80% confluency were incubated with control medium, BSA, LPS or rBAG3, for 20 hours. Polymixin was added where indicated to verify that the effects of E. coli-derived rBAG3 were independent from the presence of contaminating endotoxin. Cox-2 and iNOS expression were analyzed in cell lysates by Western blotting.
(§2) Cells were harvested and lysed in a buffer containing 20 mM HEPES (pH 7.5), 150 mM NaCl, 0.1% Triton (TNN buffer) supplemented with a protease inhibitors cocktail (1 mM phenylmethylsulfonyl fluoride, […]) by 3 cycles of freezing and thawing. Soluble proteins were collected after a centrifugation at 10,000 g for 15 min and their amount was determined by Bradford assay (Bio-Rad, Hercules, Calif.). 25 μg of total protein and serum samples (1:2 in PBS-T 0.05%) were run on 8% or 10% SDS-PAGE gels and electrophoretically transferred to nitrocellulose membrane. […] Immunoreactivity was detected by sequential incubation with horseradish peroxidase-conjugated secondary antibodies purchased from Pierce (Rockford, Ill.) and ECL detection reagents purchased from Amersham Life Sciences Inc. (Arlington Heights, Ill., USA).

J774 A.1 cells [8] = experiment: Nitrite release from J774 A1 macrophages (Griess reaction); type: cell-based, murine; settings: 24 hours, FIG. 3C panel b
Experimental: FIG. 3C panel b—Analysis of nitrite release from J774 A1 macrophages incubated with BAG3. J774 A1 cells at 80% confluency were incubated with control medium, BSA, LPS or rBAG3 for 24 hours. 100 μl of supernatants from each sample were incubated with 100 μl of Griess reagent; the optical density at 550 nm (OD550) was measured with a Beckman DU62 spectrophotometer. Nitrite concentration was evaluated by comparing the OD550 of the sample with that of a standard curve of sodium nitrite.
Nitrite content (NO2^−), a stable metabolite of NO released by cells in the culture supernatant, was measured in J774 A.1 cells (5×104/in 96-well microplates) treated with LPS (10 ng/ml) or with rBAG3 (7, 14 and 28 nM) or BSA (28 nM) for 24 hours in absence or presence of polymyxin B sulfate (Sigma-Aldrich, St. Louis, Mo., USA) 5 μg/ml. NO2^− amounts were measured by Griess reaction. Briefly, 100 μL of cell culture medium were mixed with 100 μL of Griess reagent—equal volumes of 1% (w:v) sulphanilamide in 5% (v:v) phosphoric acid and 0.1% (w:v) naphtylethylenediamine-HCl—and incubated at room temperature for 10 min, and then the absorbance was measured at 550 nm in a microplate reader Titertek (Dasit, Cornaredo, Milan, Italy). The amount of NO2− (as μM) in the samples was calculated from a sodium nitrite standard curve.

J774 A.1 cells [9] = experiment: IL-6 release from J774 A1 macrophages (ELISA); type: cell-based, murine; settings: FIG. 3C panel c
Experimental: FIG. 3C panel c—Analysis of IL-6 release from J774 A1 macrophages incubated with BAG3. J774 A1 cells at 80% confluency macrophages were incubated with control medium, BSA, LPS or recombinant BAG3 for 5 hours. BAG3 peptides (peptide 1, peptide 2, peptide 3, peptide 4 or scrambled peptide) 625 nM were added where indicated to verify their ability to block BAG3 activity. IL-6 production was measured in cell culture medium using an ELISA test. IL-6 concentration was evaluated by comparing the OD of the sample with that of a standard curve of recombinant IL-6.
IL6 was measured in supernatant of J774 A.1 cells (5×10^4/in 96-well microplates) treated with LPS (10 ng/ml) or with rBAG3 (14 nM) or BSA (14 nM) for 10 or 20 hours in absence or presence of polymyxin B sulfate (5 μg/ml). After treatment 50 μL of cell culture medium were collected and analyzed in triplicate with a mouse IL6 Kit (eBioscience).

cyclooxygenase (Cox)-2 = experiment: Cox-2 expression in J774 A1 macrophages incubated with BAG3 (Western blotting); type: cell-based, murine; settings: J774 A1 cells, 20 hours, FIG. 3C panel a
Experimental: as §1, §2

[10] = target: surface of J774 A1 macrophages (unidentified BAG3 binding partner) (murine); experiment: flow cytometry competition; 14 nM FITC-rBAG3 on J774 A.1 cells with 625 nM peptide

DKGKKNAGNAEDPHT (listed as Homo sapiens) [Pep3, 13]
Competition assays: % inhibition (J774 A.1 cells [1]): 47.2% | Competition assays: % of positive cells (±S.D.) (J774 A.1 cells [1]): 5.86 (±0.43) %

DRDPLPPGWEIKIDPQ (listed as Homo sapiens) [Pepl, 11]
Competition assays: % inhibition (J774 A.1 cells [1]): 98.4% | Competition assays: % of positive cells (±S.D.) (J774 A.1 cells [1]): 0.18 (±0.05) %

F(ab')2 fragments from mouse IgG
% inhibition [2]: 0% | % of positive cells [2]: 12.3%

F(ab')2 fragments from rabbit IgG
% inhibition [2]: 0% | % of positive cells [2]: 14.7%

FITC-BSA: purified albumin from bovine serum conjugated to FITC, negative control [reference compound]
% of positive cells (±S.D.) (J774 A.1 cells [3]; FITC-BSA negative control, J774 cells): 4.04 (±0.06) %

FITC-conjugated bovine serum albumin (from UniProt P02769 25-607)
% of positive cells [4]: 4.04%

FITC-conjugated recombinant BAG3 protein (from UniProt O95817 1-575) (ligand)
% of positive cells [5]: 11.1% | % of positive cells [6]: 15.7%

FITC-rBAG3: BAG3 recombinant protein conjugated to FITC
binding to macrophages of the cell line J774 (in words) (J774 A.1 cells [3]; FITC-conjugated BAG3, FIG. 3B): bound to macrophages | % of positive cells (±S.D.) (J774 A.1 cells [3]; FITC-rBAG3 14 nM, J774 cells): 15.7 (±0.45) % | % of positive cells (±S.D.), (FITC-rBAG3)-(FITC-BSA) (J774 A.1 cells [3]; FITC-rBAG3 signal minus FITC-BSA signal, J774 cells): 11.06 (±0.45) % | binding to the cardiomyocyte surface (in words) (HCMa cells): did not apparently bind

NPSSMTDTPGNPAAP (listed as Homo sapiens) [Pep4, 14]
Competition assays: % inhibition (J774 A.1 cells [1]): 93.8% | Competition assays: % of positive cells (±S.D.) (J774 A.1 cells [1]): 0.68 (±0.20) %

SSPKSVATEERAAPS (listed as Homo sapiens) [Pep2, 12]
Competition assays: % inhibition (J774 A.1 cells [1]): 89.1% | Competition assays: % of positive cells (±S.D.) (J774 A.1 cells [1]): 1.21 (±0.63) %

recombinant BAG3: E. coli-derived recombinant BAG3 protein
iNOS levels in macrophages [7]: enhanced | release of nitrite (J774 A.1 cells [8]): induced the release | release of interleukin (IL)-6 (J774 A.1 cells [9]): induced the release | Cox-2 levels in macrophages (cyclooxygenase (Cox)-2): enhanced

B1: BAG3 peptide 1 (peptide)
peptide: DRDPLPPGWEIKIDPQ
% inhibition [10]: 98.4% | % of positive cells [10]: 0.18%

B2: BAG3 peptide 3 (peptide)
peptide: DKGKKNAGNAEDPHT
% inhibition [10]: 47.2% | % of positive cells [10]: 5.86%

B3: BAG3 peptide 2 (peptide)
peptide: SSPKSVATEERAAPS
% inhibition [10]: 89.1% | % of positive cells [10]: 1.21%

B4: BAG3 peptide 4 (peptide)
peptide: NPSSMTDTPGNPAAP
% inhibition [10]: 93.8% | % of positive cells [10]: 0.68%
